Measured values as given in patent US7238701B2, “Substituted tetrahydrobenzothienopyrimidinamine compounds useful for treating hyper-proliferative disorders” (Bayer Pharmaceuticals Corporation, priority 2003, dated 2007).

How the values were obtained:
[1] = test system: BT474 (human breast carcinoma); experiment: In vitro tumor cell proliferation assay (Cell Titer-Glo luminescent cell viability), BT474 cells; format: cell-based; details: BT-474, 72 hours drug exposure, 10% Fetal Bovine Serum, ATP luminescence readout, read-out: IC50 (50% inhibition of cell proliferation)
How it was run: (§1)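 ATP luminescence (CellTiter-Glo) measured proliferation after 72 h compound exposure at 37 °C, giving IC50 values. Serial dilutions spanning 64 pM–100 μM in 0.1% DMSO were applied one day after plating 2.5×10^3 cells/well in RPMI plus 10% fetal bovine serum.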

[2] = test system: A431cells (human epidermoid carcinoma); experiment: In vitro tumor cell proliferation assay (Cell Titer-Glo luminescent cell viability), A431 cells; format: cell-based; details: A-431, 72 h, 72 hours drug exposure, 10% Fetal Bovine Serum, ATP luminescence readout, read-out: IC50 (50% inhibition of cell proliferation)
How it was run: as §1

CN1CCN(CCC2CCc3c(sc4ncnc(Nc5ccc(OCc6ccc(F)cc6)c(Cl)c5)c34)C2)CC1 (stereo not shown) [Example 154, N-{3-chloro-4-[(4-fluorobenzyl)oxy]phenyl}-7-[2-(4-methylpiperazin-1-yl)ethyl]-5,6,7,8-tetrahydro[1]benzothieno[2,3-d]pyrimidin-4-amine]
IC50 [1]: < 5 µM | IC50 [2]: < 5 µM

CN(C)[C@H]1CCN(CCC2CCc3c(sc4ncnc(Nc5ccc(OCc6ccc(F)cc6)c(Cl)c5)c34)C2)C1 (stereo partly drawn) [Example 157, N-{3-chloro-4-[(4-fluorobenzyl)oxy]phenyl}-7-{2-[(3S)-3-(dimethylamino)pyrrolidin-1-yl]ethyl}-5,6,7,8-tetrahydro[1]benzothieno[2,3-d]pyrimidin-4-amine]
IC50 [1]: < 5 µM | IC50 [2]: < 5 µM

CN1CCN(CCC2CCc3c(sc4ncnc(Nc5ccc(OCc6cccc(F)c6)c(Cl)c5)c34)C2)CC1 (stereo not shown) [Example 158, N-{3-chloro-4-[(3-fluorobenzyl)oxy]phenyl}-7-[2-(4-methylpiperazin-1-yl)ethyl]-5,6,7,8-tetrahydro[1]benzothieno[2,3-d]pyrimidin-4-amine]
IC50 [1]: < 5 µM | IC50 [2]: < 5 µM

COCCN(C)CCC1CCc2c(sc3ncnc(Nc4ccc(OCc5cccc(F)c5)c(Cl)c4)c23)C1 (stereo not shown) [Example 159, N-{3-chloro-4-[(3-fluorobenzyl)oxy]phenyl}-7-{2-[(2-methoxyethyl)(methyl)amino]ethyl}-5,6,7,8-tetrahydro[1]benzothieno[2,3-d]pyrimidin-4-amine]
IC50 [1]: < 5 µM | IC50 [2]: < 5 µM

CN(C)[C@@H]1CCN(CCC2CCc3c(sc4ncnc(Nc5ccc(OCc6cccc(F)c6)c(Cl)c5)c34)C2)C1 (stereo partly shown) [Example 160]
IC50 [1]: < 5 µM | IC50 [2]: < 5 µM

Fc1cccc(COc2ccc(Nc3ncnc4sc5c(c34)CCC(CCN3CCCC3)C5)cc2Cl)c1 (stereo not shown) [Example 161, N-{3-chloro-4-[(3-fluorobenzyl)oxy]phenyl}-7-(2-pyrrolidin-1-ylethyl)-5,6,7,8-tetrahydro[1]benzothieno[2,3-d]pyrimidin-4-amine]
IC50 [1]: < 5 µM | IC50 [2]: < 5 µM

CN(C)CCNCCC1CCc2c(sc3ncnc(Nc4ccc(OCc5cccc(F)c5)c(Cl)c4)c23)C1 (stereo not shown) [Example 162, N′-{2-[4-({3-chloro-4-[(3-fluorobenzyl)oxy]phenyl}amino)-5,6,7,8-tetrahydro[1]benzothieno[2,3-d]pyrimidin-7-yl]ethyl}-N,N-dimethylethane-1,2-diamine]
IC50 [1]: < 5 µM | IC50 [2]: < 5 µM

OCCNCCC1CCc2c(sc3ncnc(Nc4ccc(OCc5cccc(F)c5)c(Cl)c4)c23)C1 (stereo not shown) [Example 163, 2-({2-[4-({3-chloro-4-[(3-fluorobenzyl)oxy]phenyl}amino)-5,6,7,8-tetrahydro[1]benzothieno[2,3-d]pyrimidin-7-yl]ethyl}amino)ethanol]
IC50 [1]: < 5 µM | IC50 [2]: < 5 µM

CN(C)CCC1CCc2c(sc3ncnc(Nc4ccc(OCc5cccc(F)c5)c(Cl)c4)c23)C1 (stereo not shown) [Example 164, N-{3-chloro-4-[(3-fluorobenzyl)oxy]phenyl}-7-[2-(dimethylamino)ethyl]-5,6,7,8-tetrahydro[1]benzothieno[2,3-d]pyrimidin-4-amine]
IC50 [1]: < 5 µM | IC50 [2]: < 5 µM

OCCN(CCO)CCC1CCc2c(sc3ncnc(Nc4ccc(OCc5cccc(F)c5)c(Cl)c4)c23)C1 (stereo not shown) [Example 165, 2,2′-({2-[4-({3-chloro-4-[(3-fluorobenzyl)oxy]phenyl}amino)-5,6,7,8-tetrahydro[1]benzothieno[2,3-d]pyrimidin-7-yl]ethyl}imino)diethanol]
IC50 [1]: < 5 µM | IC50 [2]: < 5 µM

Fc1cccc(COc2ccc(Nc3ncnc4sc5c(c34)CCC(CCNCCN3CCOCC3)C5)cc2Cl)c1 (stereo not shown) [Example 166, N-{3-chloro-4-[(3-fluorobenzyl)oxy]phenyl}-7-{2-[(2-morpholin-4-ylethyl)amino]ethyl}-5,6,7,8-tetrahydro[1]benzothieno[2,3-d]pyrimidin-4-amine]
IC50 [1]: < 5 µM | IC50 [2]: < 50 µM
